Where two headings read alike, the source gives them in different places.
Key:
[1] = system: rice stem borer; test: Insecticidal effect on rice stem borer, 3rd-instar larvae (rice seedling dip); format: in vivo, Chilo suppressalis; conditions: after 72 hours, 25°C
Experimental: (§1) (A) A wettable powder prepared as described in Formulation Example 5 was diluted with water to a predetermined concentration. Rice seedlings were dipped into the dilute solution and placed in a 60 ml volume cup made of vinyl chloride resin, and 10 3rd-instar larvae of rice stem borer were put in each cup. The cups were capped and maintained at 25°C.
as §1, with “(B) A” for “(A) A”, “Example 7” for “Example 5”

[2] = system: tobacco cutworm; test: Insecticidal effect on tobacco cutworm (cabbage leaf dip); format: in vivo, Prodenia litura; conditions: after 48 hours, 25°C
Experimental: (§2) (A) An emulsifiable concentrate prepared as described in Formulation Example 1 was diluted with water to a predetermined concentration and then cabbage leaves were dipped into the dilute solution and dried in air and placed in a 60 ml volume cup made of vinyl chloride resin. 3rd-instar larvae of tobacco cutworm were put in each cup and maintained at 25°C. After 48 hours, percent mortality was assessed. The test was replicated 3 times for each compound using 30 insects in each test.
as §2, with “(B)” for “(A)”, “3” for “1”

[3] = system: apple leaf miner; test: Insecticidal effect on apple leaf miner (sprayed apple seedling); format: in vivo, Lithocolletis ringoniella; conditions: Phyllonorycter ringoniella, 336 h, 500 ppm, fourteen days after spraying
Experimental: (§3) (A) A dilute water suspension of a wettable powder prepared as described in Formulation Example 5 was sufficiently sprayed using a spray-gun on a seedling of an apple tree planted in a bisque flower pot to which plant larvae of apple leaf miner just after hatching were parasitic. Thereafter the pots were placed in a green house. Fourteen days after the spraying, bores made by larvae were broken and percent mortality was assessed for all the leaves of each seedling. Three pots were used for each treatment.
as §3, with “(B)” for “(A)”, “7” for “5”

[4] = system: Apple; test: Phytotoxicity on various crops; format: in vivo; set-up: key: Symbol — indicates that no toxicity was observed; conditions: 500 ppm sprayed; checked visually after 10 days
Experimental: (§4) An emulsifiable concentrate prepared as described in Formulation Example 2 was diluted with water to a concentration of 500 ppm based on the effective ingredient and sprayed sufficiently using a spray-gun onto various test plants. The plants were kept in a green house. After 10 days from the application phytotoxicity was checked visually. The test was replicated 3 times for each compound.

[5] = system: Beet; test: Phytotoxicity on various crops; format: in vivo; set-up: key: Symbol — indicates that no toxicity was observed; conditions: 500 ppm sprayed; checked visually after 10 days
Experimental: as §4

[6] = system: Cabbage; test: Phytotoxicity on various crops; format: in vivo; set-up: key: Symbol — indicates that no toxicity was observed; conditions: 500 ppm sprayed; checked visually after 10 days
Experimental: as §4

[7] = system: Cotton; test: Phytotoxicity on various crops; format: in vivo; set-up: key: Symbol — indicates that no toxicity was observed; conditions: 500 ppm sprayed; checked visually after 10 days
Experimental: as §4

[8] = system: Cucumber; test: Phytotoxicity on various crops; format: in vivo; set-up: key: Symbol — indicates that no toxicity was observed; conditions: 500 ppm sprayed; checked visually after 10 days
Experimental: as §4

[9] = system: Green Pepper; test: Phytotoxicity on various crops; format: in vivo; set-up: key: Symbol — indicates that no toxicity was observed; conditions: 500 ppm sprayed; checked visually after 10 days
Experimental: as §4

[10] = system: Kidney Bean; test: Phytotoxicity on various crops; format: in vivo; set-up: key: Symbol — indicates that no toxicity was observed; conditions: 500 ppm sprayed; checked visually after 10 days
Experimental: as §4

[11] = system: Rice; test: Phytotoxicity on various crops; format: in vivo; set-up: key: Symbol — indicates that no toxicity was observed; conditions: 500 ppm sprayed; checked visually after 10 days
Experimental: as §4

[12] = system: Tea; test: Phytotoxicity on various crops; format: in vivo; set-up: key: Symbol — indicates that no toxicity was observed; conditions: 500 ppm sprayed; checked visually after 10 days
Experimental: as §4

[13] = system: Tomato; test: Phytotoxicity on various crops; format: in vivo; set-up: key: Symbol — indicates that no toxicity was observed; conditions: 500 ppm sprayed; checked visually after 10 days
Experimental: as §4

[14] = system: egg plant; test: Phytotoxicity on various crops; format: in vivo; set-up: key: Symbol — indicates that no toxicity was observed; conditions: 500 ppm sprayed; checked visually after 10 days
Experimental: as §4

[15] = system: tobacco cutworm; test: Long-lasting insecticidal effect on tobacco cutworm (sprayed cabbage plantlet); format: in vivo, Prodenia litura; conditions: Table 6, concentration 500 (unit not given), mortality after 48 hours; for Percent Mortality After Application 3rd Day: leaves cut on 3rd day; for Percent Mortality After Application 5th Day: leaves cut on 5th day; for Percent Mortality After Application 7th Day: leaves cut on 7th day; for Percent Mortality After Application 10th Day: leaves cut on 10th day
Experimental: (§5) (A) An emulsifiable concentrate prepared as described in Formulation Example 2 was diluted with water to a predetermined concentration and sprayed onto a cabbage plantlet in a flower pot of 15 cm in diameter using a spray-gun sufficiently and the tests plants were placed in a green house. The leaves of the plants were cut off on the 3rd, 5th, 7th, 10th and 15th day and placed in a 60 ml volume cup and 3rd-instar larvae of tobacco cutworm were put in each cup. The cups were kept in an incubator (25°C). After 48 hours, percent mortality was assessed. The tests was replicated 3 times for each compound using 30 insects in each test.
as §5, with “(B) An” for “(A) An”, “Example 3” for “Example 2”, “and 1 5th” for “and 15th”

[16] = system: diamond back moth; test: Insecticidal effect on diamond-back moth (cabbage leaf dip); format: in vivo, Plutella xylostella; conditions: 100 ppm, after 72 hours, 25°C
Experimental: (§6) (A) An emulsifiable concentrate prepared as described in Formulation Example 1 was diluted with water to a predetermined concentration and leaves of a cabbage were dipped into the dilute emulsion for 10 seconds followed by drying in air, and charged in a 60 ml volume cup made of vinyl chloride resin. Then, thirty 3rd-instar larvae of diamond back moth were put in each cup, and the cups were kept at 25°C. After 72 hours, percent mortality was assessed and the test was replicated 3 times for each treatment.
as §6, with “(B) An” for “(A) An”, “Example 4” for “Example 1”

[17] = system: smaller tea tortrix; test: Insecticidal effect on smaller tea tortrix (apple leaf dip); format: in vivo; conditions: Adoxophyes orana, foliar, read-out: Percent Mortality
Experimental: Leaves of an apple tree were dipped into a dilute water suspension of a wettable powder prepared as described in Formulation Example 5. After drying in air, the leaves were charged in a 60 ml volume cup made of vinyl chloride resin, and […] 3rd-instar larvae of smaller tea tortrix were put in each cup. The cups were capped and kept at 25°C. After 72 hours, the number of the surviving insects and the dead insects were recorded to determine percent mortality. In each treatment, 3 cups and 30 insects were used in total.

[18] = Table 1, 100 ppm, wettable powder as Formulation Example 5
[19] = Table 1, 500 ppm, wettable powder as Formulation Example 5
[20] = Table 2, 100 ppm, wettable powder as Formulation Example 7
[21] = Table 4, 100 ppm, emulsifiable concentrate as Formulation Example 3
[22] = Table 3, 500 ppm, emulsifiable concentrate as Formulation Example 1
[23] = Table 8, emulsifiable concentrate as Formulation Example 4
[24] = Table 9, 100 ppm, after 72 hours, 25°C, wettable powder as Formulation Example 5

Compound	Percent Mortality (%) [1, 18] [%]	Percent Mortality (%) [1, 19] [%]	Percent Mortality (%) [1, 20] [%]	Percent Mortality (%) [2, 21] [%]	Phytotoxicity: Apple [4]	Phytotoxicity: Beet [5]	Phytotoxicity: Cabbage [6]	Phytotoxicity: Cotton [7]	Phytotoxicity: Cucumber [8]	Phytotoxicity: Green Pepper [9]	Phytotoxicity: Kidney Bean [10]	Phytotoxicity: Rice [11]	Phytotoxicity: Tea [12]	Phytotoxicity: Tomato [13]	Phytotoxicity: Egg Plant [14]	Percent Mortality (%) [2, 22] [%]	Percent Mortality After Application 3rd Day [15] [%]	Percent Mortality After Application 5th Day [15] [%]	Percent Mortality After Application 7th Day [15] [%]	Percent Mortality After Application 10th Day [15] [%]	other results
CCOP(=O)(Oc1ccc2c(c1)OC(CC)=C(C)C2(CC)CC)SC(C)CC (stereo not drawn) [Compound No. 19]	100	100	100	100	—	—	—	—	—	—	—	—	—	—	—						mortality at 500 ppm ([3]; Table 10, wettable powder as Formulation Example 5, read-out: Percent Morality (%)): 100%
CCCSP(=O)(OCC)Oc1cccc2c1C(C)=CC(C)(C)O2 (stereo not drawn) [Compound No. 22]	100	100	100	100	—	—	—	—	—	—	—	—	—	—	—	100	100	100	73.3	53.3	Percent Mortality After Application Immediately after Application [15]: 100%; Percent Mortality (%) ([16]; Table 7, emulsifiable concentrate as Formulation Example 1): 100%; Percent Mortality (%) [16, 23]: 100%; mortality at 100 ppm [17, 24]: 100%
CCC(C)SP(=O)(OC)Oc1ccc2c(c1)OC(C)(C)C=C2C (stereo not drawn) [Compound No. 24]			100	100	—	—	—	—	—	—	—	—	—	—	—		100	93.3	60.0	23.3	Percent Mortality After Application Immediately after Application [15]: 100%; Percent Mortality (%) [16, 23]: 100%; mortality at 500 ppm ([3]; Table 11, wettable powder as Formulation Example 7, read-out: Percent Mortality (%)): 100%
CCOP(=S)(OCC)Oc1cc(C)nc(C(C)C)n1 [Diazinon, 0,0-diethyl (O-2-isopropyl-6-methyl-pyrimidin-4-yl)phosphorothioate, reference compound]																					mortality at 100 ppm ([17]; 72 h): 43.3%
CCOP(=O)(Oc1ccc2c(c1)OC(C)=CC2(C)C)SC(C)C (stereo not drawn) [compound 14]		100			—	—	—	—	—	—	—	—	—	—	—	100					mortality at 100 ppm [17, 24]: 83.3%

Source: patent EP0054589B1, “Organic phosphoric acid ester derivatives, a process for preparing the same and insecticidal, miticidal or nematocidal compositions containing the same” (priority 1980, dated 1982)
